Assay results taken from patent US12540141B2, “Spiropyrrolidine derived antiviral agents” (priority 2020, dated 2026).
Read-outs that look alike come from different tables or passages of the source.

Tests used:
[1] = target: SARS-CoV-2 3CL-protease (Severe acute respiratory syndrome coronavirus 2, UniProt P0DTD1); test: SARS-CoV-2 3C-Like (3CL) Protease Fluorescence Assay (FRET); type: biochemical; conditions: SARS-CoV-2 3CL-protease 10 nM, 30 min preincubation at RT, substrate 40 μM
[2] = system: 229E human corona virus (hCoV); test: 229E Live Virus Assay (MRC-5 cells, CPE read by ATPlite); type: cell-based, hCoV-229E
[3] = Human coronavirus 229E, MRC5, hCoV-229E live virus in MRC-5 cells, MOI 0.05, CPE by ATPlite, run in duplicate

| Compound | IC50 [1] [nM] | other results |
| --- | --- | --- |
| COc1cc(Cl)cc(C(=O)N(C)[C@@H](CC(C)C)C(=O)N2C[C@]3(C[C@H]2C#N)C(=O)Nc2ccccc23)c1 [Example 180] | < 100 | EC50 [2, 3]: < 100 nM |
| CC(C)C[C@@H](C(=O)N1C[C@]2(C[C@H]1C#N)C(=O)Nc1ccccc12)N(C)C(=O)c1ccc2ccc(Br)cc2c1 [Example 230] | 100 to 1000 | EC50 [2, 3]: < 100 nM |
| CC(C)C[C@@H](C(=O)N1C[C@]2(C[C@H]1C#N)C(=O)Nc1ccccc12)N(C)C(=O)c1ccc(-c2ccccc2)cn1 [Example 232] | 100 to 1000 | EC50 [2, 3]: < 100 nM |
| COc1cc(C(=O)N(C)[C@@H](CC(C)C)C(=O)N2C[C@]3(C[C@H]2C#N)C(=O)Nc2ccccc23)cn2cc(C(F)F)nc12 [Example 255] |  | EC50 ([2]; hCoV-229E live virus in MRC-5 cells, MOI 0.05, CPE by ATPlite, run in duplicate): < 100 nM |
| C[C@H](OC(=O)N[C@@H](CC(C)(C)C)C(=O)N1C[C@]2(C[C@H]1C#N)C(=O)Nc1ccc(Cl)cc12)c1ccc(F)cc1 [Example 494] |  | EC50 [2]: 100 to 1000 nM |
| Cc1c(C(=O)N[C@@H](CC2CC2)C(=O)N2C[C@]3(C[C@H]2C#N)C(=O)Nc2ccc(Cl)cc23)sc2cccc(F)c12 [Example 519, N—((S)-1-((3R,5′S)-5-chloro-5′-cyano-2-oxospiro[indoline-3,3′-pyrrolidin]-1′-yl)-3-cyclopropyl-1-oxopropan-2-yl)-4-fluoro-3-methylbenzo[b]thiophene-2-carboxamide] | < 100 |  |
| N#C[C@@H]1C[C@@]2(CN1C(=O)[C@H](CC1CC1)NC(=O)c1cccc(OC(F)(F)F)c1)C(=O)Nc1ccc(Cl)cc12 [Example 520] | < 100 |  |
| Cc1c(C(=O)N[C@@H](CC2CC2)C(=O)N2C[C@]3(C[C@H]2C#N)C(=O)Nc2ccc(F)cc23)sc2cccc(F)c12 [Example 521] | < 100 |  |
| N#C[C@@H]1C[C@@]2(CN1C(=O)[C@H](CC1CC1)NC(=O)c1c(Cl)cccc1Cl)C(=O)Nc1ccc(F)cc12 [Example 522] | 100 to 1000 |  |
| C[C@H](OC(=O)N[C@@H](CC(C)(C)C)C(=O)N1C[C@]2(C[C@H]1C#N)C(=O)Nc1ccc(F)cc12)c1ccc(F)cc1 [Example 524] | < 100 |  |
| N#C[C@@H]1C[C@@]2(CN1C(=O)[C@H](CC1CC1)NC(=O)c1c(Cl)cccc1Cl)C(=O)Nc1ccc(Cl)cc12 [Example 525] | < 100 |  |
| N#C[C@@H]1C[C@@]2(CN1C(=O)[C@H](CC1CC1)NC(=O)c1cccc(OC(F)(F)F)c1)C(=O)Nc1ccc(F)cc12 [Example 526] | < 100 |  |
| CC(C)C[C@H](NC(=O)O[C@@H](c1ccccc1)C(F)(F)F)C(=O)N1C[C@]2(C[C@H]1C#N)C(=O)Nc1ccc(F)cc12 [Example 527, (S)-2,2,2-trifluoro-1-phenylethyl ((S)-1-((3R,5′S)-5′-cyano-5-fluoro-2-oxospiro[indoline-3,3′-pyrrolidin]-1′-yl)-4-methyl-1-oxopentan-2-yl)carbamate] | < 100 |  |
| CC(C)C[C@H](NC(=O)c1cc2c(F)cccc2[nH]1)C(=O)N1C[C@]2(C[C@H]1C#N)C(=O)Nc1cccc(Cl)c12 [Example 528] | 100 to 1000 |  |
| Cc1cccc2c1[C@@]1(C[C@@H](C#N)N(C(=O)[C@H](CC(C)C)NC(=O)c3cc4c(F)cccc4[nH]3)C1)C(=O)N2 [Example 529] | 100 to 1000 |  |
| CC(C)C[C@H](NC(=O)c1cc2c(F)cccc2[nH]1)C(=O)N1C[C@]2(C[C@H]1C#N)C(=O)Nc1cc(F)ccc12 [Example 530] | < 100 |  |
| CC(C)C[C@H](NC(=O)c1cc2c(F)cccc2[nH]1)C(=O)N1C[C@]2(C[C@H]1C#N)C(=O)Nc1cc(Cl)ccc12 [Example 531] | < 100 |  |
| CC(C)C[C@H](NC(=O)c1cc2c(F)cccc2[nH]1)C(=O)N1C[C@]2(C[C@H]1C#N)C(=O)Nc1c(Cl)cccc12 [Example 533] | < 100 |  |
| Cc1cccc2c1NC(=O)[C@]21C[C@@H](C#N)N(C(=O)[C@H](CC(C)C)NC(=O)c2cc3c(F)cccc3[nH]2)C1 [Example 534] | < 100 |  |

| Compound | IC50 [1] [nM] | other results |
| --- | --- | --- |
| C=CC(=O)N(C)[C@@H](CC(C)(C)F)C(=O)N1C[C@]2(C[C@H]1C#N)C(=O)Nc1ccccc12 [Example 535, N—((S)-1-((3R,5′S)-5′-cyano-2-oxospiro[indoline-3,3′-pyrrolidin]-1′-yl)-4-fluoro-4-methyl-1-oxopentan-2-yl)-N-methylacrylamide] | 100 to 1000 |  |
| CN(C(=O)CN1CCOCC1)[C@@H](CC(C)(C)F)C(=O)N1C[C@]2(C[C@H]1C#N)C(=O)Nc1ccccc12 [Example 536] | 100 to 1000 |  |
| CN(C(=O)CCN1CCOCC1)[C@@H](CC(C)(C)F)C(=O)N1C[C@]2(C[C@H]1C#N)C(=O)Nc1ccccc12 [Example 537] | < 100 |  |
| CN(C(=O)CCCN1CCOCC1)[C@@H](CC(C)(C)F)C(=O)N1C[C@]2(C[C@H]1C#N)C(=O)Nc1ccccc12 [Example 538] | > 1000 |  |
| CN(C)CCC(=O)N(C)[C@@H](CC(C)(C)F)C(=O)N1C[C@]2(C[C@H]1C#N)C(=O)Nc1ccccc12 [Example 539, N—((S)-1-((3R,5′S)-5′-cyano-2-oxospiro[indoline-3,3′-pyrrolidin]-1′-yl)-4-fluoro-4-methyl-1-oxopentan-2-yl)-3-(dimethylamino)-N-methylpropanamide] | < 100 |  |
| CN(C(=O)CCN1CCC1)[C@@H](CC(C)(C)F)C(=O)N1C[C@]2(C[C@H]1C#N)C(=O)Nc1ccccc12 [Example 540] | < 100 |  |
| CN(C(=O)CCN1CCCC1)[C@@H](CC(C)(C)F)C(=O)N1C[C@]2(C[C@H]1C#N)C(=O)Nc1ccccc12 [Example 541] | < 100 |  |
| CN(C(=O)CCN1CCCCC1)[C@@H](CC(C)(C)F)C(=O)N1C[C@]2(C[C@H]1C#N)C(=O)Nc1ccccc12 [Example 542] | < 100 |  |
| CNCCC(=O)N(C)[C@@H](CC(C)(C)F)C(=O)N1C[C@]2(C[C@H]1C#N)C(=O)Nc1ccccc12 [Example 543] | < 100 |  |
| CCN(CC)CCC(=O)N(C)[C@@H](CC(C)(C)F)C(=O)N1C[C@]2(C[C@H]1C#N)C(=O)Nc1ccccc12 [Example 544] | < 100 |  |
| C[C@@H]1CCC[C@H](C)N1CCC(=O)N(C)[C@@H](CC(C)(C)F)C(=O)N1C[C@]2(C[C@H]1C#N)C(=O)Nc1ccccc12 [Example 545] | < 100 |  |
| C[C@@H]1COC[C@H](C)N1CCC(=O)N(C)[C@@H](CC(C)(C)F)C(=O)N1C[C@]2(C[C@H]1C#N)C(=O)Nc1ccccc12 [Example 546] | < 100 |  |
| CN(C(=O)CCNc1nccs1)[C@@H](CC(C)(C)F)C(=O)N1C[C@]2(C[C@H]1C#N)C(=O)Nc1ccccc12 [Example 547] | < 100 |  |
| N#C[C@@H]1C[C@@]2(CN1C(=O)[C@H](CN1CCCC1=O)NC(=O)OCc1ccccc1)C(=O)Nc1ccccc12 [Example 548, benzyl ((S)-1-((3R,5′S)-5′-cyano-2-oxospiro[indoline-3,3′-pyrrolidin]-1′-yl)-1-oxo-3-(2-oxopyrrolidin-1-yl)propan-2-yl)carbamate] | 100 to 1000 |  |
| CC(C)C[C@@H](C(=O)N1C[C@]2(C[C@H]1C#N)C(=O)Nc1ncccc12)N(C)C(=O)c1cc2c(F)cc(F)cc2[nH]1 [Example 549] | < 100 |  |
| CC(C)C[C@@H](C(=O)N1C[C@]2(C[C@H]1C#N)C(=O)Nc1ncccc12)N(C)C(=O)c1cc2c(F)cc(F)c(F)c2[nH]1 [Example 550] | < 100 |  |
| CN(C(=O)c1cc2c(F)cc(F)c(F)c2[nH]1)[C@@H](CC(C)(C)F)C(=O)N1C[C@]2(C[C@H]1C#N)C(=O)Nc1ncccc12 [Example 551] | < 100 |  |
| CN(C(=O)c1cc2c(F)cc(F)c(F)c2[nH]1)[C@@H](CC(C)(C)F)C(=O)N1C[C@]2(C[C@H]1C#N)C(=O)Nc1cccnc12 [Example 552] | < 100 |  |
